Source: ChEMBL document CHEMBL4038287, “Design, synthesis, and in vitro evaluation of novel antifungal triazoles” (2017)
Values after ≈ are worked out from the molar mass of the structure shown.

Experiments:
Assay type in all cases: functional
[1] = tested on: Trichophyton rubrum; assay: Antifungal activity against Trichophyton rubrum isolate cmccftla by micro-broth dilution method
[2] = tested on: Candida parapsilosis; assay: Antifungal activity against Candida parapsilosis isolate 22019 by micro-broth dilution method; settings: Lodderomyces parapsilosis
[3] = tested on: Nakaseomyces glabratus; assay: Antifungal activity against Candida glabrata isolate 537 by micro-broth dilution method
[4] = tested on: Nannizzia gypsea; assay: Antifungal activity against Microsporum gypseum isolate cmccftla by micro-broth dilution method
[5] = tested on: Candida albicans; assay: Antifungal activity against Candida albicans isolate Y0109 by micro-broth dilution method
[6] = tested on: Aspergillus fumigatus; assay: Antifungal activity against Aspergillus fumigatus isolate 7544 by micro-broth dilution method
[7] = tested on: Cryptococcus neoformans; assay: Antifungal activity against Cryptococcus neoformans isolate 32605 by micro-broth dilution method
[8] = tested on: Candida albicans; assay: Antifungal activity against Candida albicans isolate SC5314 by micro-broth dilution method

| Structure (SMILES) | MIC80 [1] [µg/mL] | MIC80 [2] [µg/mL] | MIC80 [3] [µg/mL] | MIC80 [4] [µg/mL] | MIC80 [5] [µg/mL] | MIC80 [6] [µg/mL] | MIC80 [7] [µg/mL] | MIC80 [8] [µg/mL] |
| --- | --- | --- | --- | --- | --- | --- | --- | --- |
| C[C@@H](c1cc(-c2c(F)cccc2F)no1)[C@](O)(Cn1cncn1)c1cc(F)ccc1F | 4 (≈ 9.25 µM) | 1 (≈ 2.31 µM) | 0.125 (≈ 0.289 µM) | > 8 | 1 (≈ 2.31 µM) | > 8 | 0.0625 (≈ 0.145 µM) | 0.5 (≈ 1.16 µM) |
| C[C@@H](c1cc(-c2c(F)cccc2F)no1)[C@](O)(Cn1cncn1)c1ccc(F)cc1F | 0.125 (≈ 0.289 µM) | 0.125 (≈ 0.289 µM) | 0.0625 (≈ 0.145 µM) | 1 (≈ 2.31 µM) | 0.0625 (≈ 0.145 µM) | 2 (≈ 4.63 µM) | 0.125 (≈ 0.289 µM) | 0.125 (≈ 0.289 µM) |
| C[C@@H](c1cc(-c2ccc(Cl)cc2)no1)[C@](O)(Cn1cncn1)c1ccc(F)cc1F | 0.125 (≈ 0.29 µM) | 0.125 (≈ 0.29 µM) | 0.125 (≈ 0.29 µM) | 1 (≈ 2.32 µM) | 0.0313 (≈ 0.0726 µM) | 4 (≈ 9.28 µM) | 0.125 (≈ 0.29 µM) | 0.125 (≈ 0.29 µM) |
| C[C@@H](c1cc(-c2ccc(F)cc2)no1)[C@](O)(Cn1cncn1)c1cc(F)ccc1F | 1 (≈ 2.41 µM) | 0.25 (≈ 0.603 µM) | 0.0625 (≈ 0.151 µM) | > 8 | 0.125 (≈ 0.302 µM) | > 8 | 0.0625 (≈ 0.151 µM) | 0.125 (≈ 0.302 µM) |
| C[C@@H](c1cc(-c2ccccc2F)no1)[C@](O)(Cn1cncn1)c1ccc(F)cc1F | 0.0625 (≈ 0.151 µM) | 0.125 (≈ 0.302 µM) | 0.0313 (≈ 0.0755 µM) | 0.5 (≈ 1.21 µM) | 0.0625 (≈ 0.151 µM) | 2 (≈ 4.83 µM) | 0.125 (≈ 0.302 µM) | 0.0313 (≈ 0.0755 µM) |
| Cc1ccc(-c2cc([C@H](C)[C@](O)(Cn3cncn3)c3ccc(F)cc3F)on2)cc1 | 0.25 (≈ 0.609 µM) | 0.125 (≈ 0.305 µM) | 0.25 (≈ 0.609 µM) | 2 (≈ 4.87 µM) | 0.25 (≈ 0.609 µM) | 8 (≈ 19.5 µM) | 0.125 (≈ 0.305 µM) | 0.0625 (≈ 0.152 µM) |
| C[C@@H](c1cc(-c2ccc(F)cc2F)no1)[C@](O)(Cn1cncn1)c1cc(F)ccc1F | 1 (≈ 2.31 µM) | 1 (≈ 2.31 µM) | 0.0625 (≈ 0.145 µM) | 4 (≈ 9.25 µM) | 0.125 (≈ 0.289 µM) | > 8 | 0.0625 (≈ 0.145 µM) | 0.25 (≈ 0.578 µM) |
| C[C@@H](c1cc(-c2ccc(F)cc2F)no1)[C@](O)(Cn1cncn1)c1ccc(F)cc1F | 0.0625 (≈ 0.145 µM) | 0.125 (≈ 0.289 µM) | 0.0313 (≈ 0.0724 µM) | 0.5 (≈ 1.16 µM) | 0.0625 (≈ 0.145 µM) | 2 (≈ 4.63 µM) | 0.125 (≈ 0.289 µM) | 0.0625 (≈ 0.145 µM) |
| C[C@@H](c1cc(-c2c(F)cc(F)cc2F)no1)[C@](O)(Cn1cncn1)c1ccc(F)cc1F | 0.5 (≈ 1.11 µM) | 0.125 (≈ 0.278 µM) | 0.0625 (≈ 0.139 µM) | 1 (≈ 2.22 µM) | 0.125 (≈ 0.278 µM) | 2 (≈ 4.44 µM) | 0.0625 (≈ 0.139 µM) | 0.25 (≈ 0.555 µM) |
| C[C@@H](c1cc(-c2ccc(C(F)(F)F)cc2)no1)[C@](O)(Cn1cncn1)c1ccc(F)cc1F | 2 (≈ 4.31 µM) | 1 (≈ 2.15 µM) | 1 (≈ 2.15 µM) | 2 (≈ 4.31 µM) | 0.125 (≈ 0.269 µM) | > 8 | 0.125 (≈ 0.269 µM) | 0.5 (≈ 1.08 µM) |
| C[C@@H](c1cc(-c2ccc(OC(F)(F)F)cc2)no1)[C@](O)(Cn1cncn1)c1ccc(F)cc1F | 0.125 (≈ 0.26 µM) | 0.5 (≈ 1.04 µM) | 0.0625 (≈ 0.13 µM) | 4 (≈ 8.33 µM) | 0.0313 (≈ 0.0652 µM) | 8 (≈ 16.7 µM) | 0.125 (≈ 0.26 µM) | 0.125 (≈ 0.26 µM) |
| C[C@@H](c1cc(-c2ccc(Cl)cc2F)no1)[C@](O)(Cn1cncn1)c1cc(F)ccc1F | 1 (≈ 2.23 µM) | 1 (≈ 2.23 µM) | 0.0313 (≈ 0.0697 µM) | 8 (≈ 17.8 µM) | 0.25 (≈ 0.557 µM) | > 8 | 0.125 (≈ 0.279 µM) | 0.5 (≈ 1.11 µM) |
| C[C@@H](c1cc(-c2ccc(Cl)c(Cl)c2)no1)[C@](O)(Cn1cncn1)c1ccc(F)cc1F | 0.5 (≈ 1.07 µM) | 0.5 (≈ 1.07 µM) | 0.25 (≈ 0.537 µM) | 4 (≈ 8.6 µM) | 0.0625 (≈ 0.134 µM) | > 8 | 0.25 (≈ 0.537 µM) | 0.25 (≈ 0.537 µM) |
| OC(Cn1cncn1)(Cn1cncn1)c1ccc(F)cc1F [FLUCONAZOLE] | 8 (≈ 26.1 µM) | 2 (≈ 6.53 µM) | 2 (≈ 6.53 µM) | 32 (≈ 104 µM) | 0.25 (≈ 0.816 µM) | > 64 | 0.5 (≈ 1.63 µM) | 0.5 (≈ 1.63 µM) |
| CC(=O)N1CCN(c2ccc(OCC3COC(Cn4ccnc4)(c4ccc(Cl)cc4Cl)O3)cc2)CC1 (stereo not drawn) [KETOCONAZOLE] | 1 (≈ 1.88 µM) | 0.5 (≈ 0.941 µM) | 0.0625 (≈ 0.118 µM) | 1 (≈ 1.88 µM) | 0.25 (≈ 0.47 µM) | 4 (≈ 7.53 µM) | 0.0625 (≈ 0.118 µM) | 0.125 (≈ 0.235 µM) |
| C[C@@H](c1nc(-c2ccc(C#N)cc2)cs1)[C@](O)(Cn1cncn1)c1ccc(F)cc1F [RAVUCONAZOLE] | 0.125 (≈ 0.286 µM) | 0.25 (≈ 0.571 µM) | 0.125 (≈ 0.286 µM) | 1 (≈ 2.29 µM) | 0.0625 (≈ 0.143 µM) | 2 (≈ 4.57 µM) | 0.125 (≈ 0.286 µM) | 0.0625 (≈ 0.143 µM) |
